Data: patent US20200215153A1, “CANCER TREATMENT AND/OR PREVENTION THROUGH REGULATION OF UBIQUITINATION” (Academia Sinica, priority 2018, published 2020)

Experiments:
[1] = tested on: TNBC cells (Hs578T, MDA-MB157, MDA-MB468); experiment: MTT assay for viability of TNBC cells transfected with BIKDD and treated with IRE1α inhibitor; assay type: cell-based; conditions: 10 or 100 μM STF-083010, 48 h
Protocol: (§1) FIG. 7. […] (a, c) MTT assay for the viability of indicated TNBC cells transfected with […] CMV-BIKDD (a) or VISA-BIKDD (c) and treated with 10 or 100 μM STF-083010 for 48 h. CI values are indicated. (b) Western blot analysis of cleaved PARP in indicated TNBC cells transfected with CMV-BIKDD and treated with 100 μM STF-083010 for 36 h. […] Tumor volume were measured at indicated days and plotted. Data are mean±s.d., *P<0.05; ***P<0.001 by two-way ANOVA with Turkey's post test, n=5. Tumors were surgically removed at day 49 and their sizes are shown on the right. (e) Mice orthotopically implanted with Hs578T cells and treated with VISA-BIKDD lipid nanoparticle together with STF-083010 or DMSO starting at day 28 after tumor cell implantation (see Materials and Methods). Tumor volume were measured at indicated days and plotted. Data are mean±s.d., ***P<0.001 by two-way ANOVA with Turkey's post test, n=5. Tumors were surgically removed at day 66 and their sizes are shown on the right.
MDA-MB157 and MDA-MB 468 cells were seeded at a density of 5×10^3 cells and Hs578T cells were at 2×10^3 cells in 96-well plates. Cells were transfected with BIKDD. In the next day, cells were treated with IRE1α inhibitor or DMSO for 48 h and then with 0.4 mg/ml methylthiazolyldiphenyltetrazolium bromide (MTT) (Sigma) for 2 h. Cells were dissolved in DMSO, followed by absorbance measurement at 590 nm. The combination index (CI) was calculated using the equation: CI=CA/IC50A+CB/IC50B. CA and CB represent the concentrations of the two agents for combined treatment. IC50A and IC50B are the IC50 values for each single treatment, which were determined by treating cells with various dosages of each agent followed by MTT assay. (CI<1) indicates a synergistic effect, (CI>1) corresponds to an antagonistic effect, and (CI=1) represents an additive effect.

[2] = tested on: Hs578T orthotopic breast tumors; experiment: BIKDD gene therapy model: orthotopic Hs578T tumors, intratumoral VISA-BIKDD plus STF-083010; assay type: in vivo, nude mice
Protocol: (§2) All mice were maintained according to the guidelines of animal ethical regulations, and all animal studies were approved by the Experimental Animal Committee, Academia Sinica. […] Seven days later, DMSO or STF-083010 (40 mg/kg) was intraperitoneally administrated every 3 days. […] Twenty-eight days later, DMSO or STF-083010 (40 mg/kg) was intraperitoneally administrated every 3-4 days. […] For both models, tumors were measured every 3 or 4 days, and their volumes were calculated using the equation: mm^3=[…]×length(mm)×(width(mm))^2.

BIKDD = BIKDD levels in TNBC cell lines treated with IRE1α inhibitor; assay type: cell-based; conditions: TNBC cell lines Hs578T, MDA-MB157 and MDA-MB468
Protocol: (§3) Cell extraction was performed with RIPA lysis buffer containing 50 mM Tris (pH 8.0), 0.15 M NaCl, 1% NP40, 1% sodium deoxycholate, 0.1% SDS, 1 mM PMSF, 1 µg/ml aprotinin, and 1 µg/ml leupeptin. Western blot was performed with the standard protocol. For an efficient detection of BIK by Western blot, Tricine-SDS-PAGE was used. Western blot analyses of other proteins were performed with Glycine-SDS-PAGE. Immunoprecipitation was performed and analyzed as previously described. Briefly, cell lysates were incubated with primary antibody for overnight. The Pure Proteome Protein A/G Magnetic Beads (LSKMAGA/G10, EMD Millipore) were then added into cell lysates and incubated for 1.5 h. The beads were washed with RIPA lysis buffer and the bound proteins were analyzed by Western blot.

[3] = tested on: Hs578T orthotopic breast tumors; experiment: Orthotopic Hs578T tumor model, cells expressing BIKDD or control vector, treated with STF-083010; assay type: in vivo, nude mice
Protocol: as §2

cleaved PARP = experiment: Western blot analysis of cleaved PARP in TNBC cells; assay type: cell-based; conditions: TNBC cells transfected with CMV-BIKDD, 100 μM STF-083010, 36 h; FIG. 7b
Protocol: as §1
(§4) Cell extraction was performed with RIPA lysis buffer containing 50 mM Tris (pH 8.0), 0.15 M NaCl, 1% NP40, 1% sodium deoxycholate, 0.1% SDS, 1 mM PMSF, 1 µg/ml aprotinin, and 1 µg/ml leupeptin. Western blot was performed with the standard protocol. […] Immunoprecipitation was performed and analyzed as previously described. […] The beads were washed with RIPA lysis buffer and the bound proteins were analyzed by Western blot.

BIK [4] = experiment: Analysis of endogenous BIK ubiquitination in 293T cells; assay type: cell-based; conditions: FIG. 4c
Protocol: (§5) FIG. 4. ER stress stimulates BIK ubiquitination and degradation through ASB11 and p97. (a) Western blot analysis of BIK and ASB11 levels in 293T cells treated with 10 μg/ml tunicamycin or 200 nM of thapsigargin for 16 h. (b) Western blot analysis of BIK levels in 293T cells treated with 10 μg/ml tunicamycin for 12 h and then with 50 μg/ml cycloheximide for indicated time periods. The relative amounts of BIK are indicated on the bottom. (c, e) Analysis of endogenous (c) or exogenous (e) BIK ubiquitination in 293T cells (c) or 293T derivatives as in FIG. 2d (e) transfected with indicated constructs and treated with tunicamycin. (d) Western blot analysis of 293T derivatives as in FIG. 2d treated with 10 μg/ml tunicamycin for 16 h. (f) Western blot analysis of BIK levels in 293T derivatives co-treated with 10 μg/ml tunicamycin and MG132 for 16 h. (g) Western blot analysis of BIK expression in 293T cells co-treated with tunicamycin and 10 μM CB-5083 for 16 h. (h, i) Western blot analysis of BIK expression in 293T cells stably expressing indicated shRNAs and treated with 10 μg/ml tunicamycin for 16 h. The knockdown efficiency of each shRNA is shown on the right. (j) Immunoprecipitation analysis of p97 interaction with ubiquitinated BIK in 293T cells treated with 10 μg/ml tunicamycin for 16 h. […]

BIK [5] = experiment: Western blot analysis of BIK levels in 293T cells; assay type: cell-based; conditions: multiple cell lines; 10 μg/ml tunicamycin or 200 nM thapsigargin, 16 h; FIG. 4a
Protocol: FIG. 2. […] (d) Western blot analysis of BIK levels in indicated cells stably expressing control or ASB11 shRNAs.
as §3

p97 / ubiquitinated BIK = experiment: Immunoprecipitation analysis of p97 interaction with ubiquitinated BIK; assay type: cell-based; conditions: 293T cells, 10 μg/ml tunicamycin, 16 h
Protocol: as §5, with “h.” for “h. (h, i) Western blot analysis of BIK expression in 293T cells stably expressing indicated shRNAs and treated with 10 μg/ml tunicamycin for 16 h. The knockdown efficiency of each shRNA is shown on the right. (j) Immunoprecipitation analysis of p97 interaction with ubiquitinated BIK in 293T cells treated with 10 μg/ml tunicamycin for 16 h.”
as §4, with “leupeptin.” for “leupeptin. Western blot was performed with the standard protocol.”

ASB11 = experiment: Western blot analysis of ASB11 protein expression under ER stress; assay type: cell-based; conditions: multiple cell lines; 10 μg/ml tunicamycin or 200 nM thapsigargin, 16 h; FIG. 4a
Protocol: as §5, with “h.” for “h. (h, i) Western blot analysis of BIK expression in 293T cells stably expressing indicated shRNAs and treated with 10 μg/ml tunicamycin for 16 h. The knockdown efficiency of each shRNA is shown on the right. (j) Immunoprecipitation analysis of p97 interaction with ubiquitinated BIK in 293T cells treated with 10 μg/ml tunicamycin for 16 h.”
as §4, with “leupeptin.” for “leupeptin. Western blot was performed with the standard protocol.”

ASB11 mRNA = experiment: RT-qPCR analysis of ASB11 mRNA level under ER stress; assay type: cell-based; conditions: 293T, MDA-MB157 and MDA-MB468 cells; 16 h; FIG. 3a
Protocol: FIG. 3. ER stress induces ASB11 transcription through XBP1. (a, b) RT-qPCR analysis of ASB11 mRNA level in 293T cells (a) or 293T cells stably expressing control or XBP1 shRNAs (b) treated with tunicamycin or thapsigargin for 16 h. (c) RT-qPCR analysis of ASB11 mRNA expression in 293T cells transfected with control vector or XBP1s. (d) Schematic representation of the 5′-regulatory region of ASB11 gene, the luciferase reporters and the ChIP primers used in this study. (e, g) Luciferase reporter assay of 293T cells transfected with control or XBP1s expression construct together with the indicated reporter constructs. (f, k) qChIP assays in 293T cells (f) or 293T derivatives (k) treated with 10 μg/ml tunicamycin for 16 h using control IgG or XBP1s antibody for immunoprecipitation and indicated sets of primers for qPCR. […] P values are determined by t-test (a, b right panel, c, e) or 1-way ANOVA with Tukey's post test (b left panel, f, g, i, j, k). **P<0.01; ***P<0.001.
Total mRNA was extracted from cells using TRIZOL reagent (Invitrogen), and equal amounts of RNA were reverse transcribed to cDNA using the iScript™ cDNA Synthesis Kit (Bio-Rad). Quantitative real-time PCR was performed using the Power SYBR Green PCR Master kit (Applied Biosystems). […]

293T cells = experiment: ELISA assay of cell apoptosis (Cell Death ELISA) in 293T cells; assay type: cell-based; conditions: control 293T cells, early time point (12 h) after tunicamycin; FIG. 6e
Protocol: FIG. 6. Regulation of ASB11-mediated BIK ubiquitination influences on cell life-death decision under ER stress and DNA damage. (a, b) ELISA assay of cell apoptosis (a) and Western blot analysis of active caspase 3 and cleaved PARP (b) in HCT116 p53^+/+ cells stably expressing indicated ASB11 constructs and treated with 3 μg/ml doxorubicin for 24 h. (c, d) ELISA assay of cell apoptosis (c) and Western blot analysis of active caspase 3 and cleaved PARP (d) in HCT116 p53^+/+ cells transiently transfected with ASB11 and/or BIK and treated with 3 μg/ml doxorubicin for 24 h. (e, f) ELISA assay for cell apoptosis (e) and Western blot analysis of active caspase 3 and cleaved PARP (f) in 293T cells stably expressing indicated shRNAs and treated with […] tunicamycin for 12 h. The knockdown efficiencies of various shRNAs are shown on the bottom. (g) Western blot analysis of BIK level in 293T cells transiently transfected with indicated BIK constructs and treated with 10 μg/ml tunicamycin for 24 h. The equal expression of BIK and BIK(2KR) in untreated cells (by adjusting the amount of plasmid used for transfection) is shown. […]
Apoptosis was analyzed as previously described. […] Cells were harvested and DNA fragmentation was measured by Cell Death ELISA Kit (Roche).

BIK [6] = experiment: Cycloheximide-chase analysis of BIK turnover in 293T cells; assay type: cell-based; conditions: 10 μg/ml tunicamycin 12 h then 50 μg/ml cycloheximide, FIG. 4b
Protocol: FIG. 4. ER stress stimulates BIK ubiquitination and degradation through ASB11 and p97. (a) Western blot analysis of BIK and ASB11 levels in 293T cells treated with 10 μg/ml tunicamycin or 200 nM of thapsigargin for 16 h. (b) Western blot analysis of BIK levels in 293T cells treated with 10 μg/ml tunicamycin for 12 h and then with 50 μg/ml cycloheximide for indicated time periods. The relative amounts of BIK are indicated on the bottom. (c, e) Analysis of endogenous (c) or exogenous (e) BIK ubiquitination in 293T cells (c) or 293T derivatives as in FIG. 2d (e) transfected with indicated constructs and treated with tunicamycin. (d) Western blot analysis of 293T derivatives as in FIG. 2d treated with 10 μg/ml tunicamycin for 16 h. (f) Western blot analysis of BIK levels in 293T derivatives co-treated with 10 μg/ml tunicamycin and MG132 for 16 h. (g) Western blot analysis of BIK expression in 293T cells co-treated with tunicamycin and 10 μM CB-5083 for 16 h. (h, i) Western blot analysis of BIK expression in 293T cells stably expressing indicated shRNAs and treated with 10 μg/ml tunicamycin for 16 h. The knockdown efficiency of each shRNA is shown on the right. (j) Immunoprecipitation analysis of p97 interaction with ubiquitinated BIK in 293T cells treated with 10 μg/ml tunicamycin for 16 h.

| Compound | killing of TNBC cells in combination with BIKDD ([1]; CMV-BIKDD transfected Hs578T, MDA-MB157, MDA-MB468, FIG. 7a) | killing effect of co-administration with VISA-BIKDD ([1]; VISA-BIKDD transfected TNBC cells, FIG. 7c) | anti-tumor effect of combined administration compared to BIKDD alone ([2]; VISA-BIKDD 0.75 mg/kg intratumoral every 7 days plus STF-083010 40 mg/kg i.p. every 3-4 days, FIG. 7e) | body weights of mice ([2]; VISA-BIKDD gene therapy model) | BIKDD levels (BIKDD) | tumor growth, combined treatment with BIKDD ([3]; BIKDD-expressing Hs578T cells plus STF-083010 40 mg/kg i.p. every 3 days, FIG. 7d) | body weights of mice ([3]; BIKDD-expressing cell model) | tumor growth, agent alone ([3]; BIKDD-expressing cells or STF-083010 40 mg/kg i.p. every 3 days, alone, FIG. 7d) | level of cleaved PARP, combinatory treatment (cleaved PARP) | ubiquitination of endogenous BIK (BIK [4]) | BIK protein level (BIK [5]) | interaction of p97 with ubiquitinated BIK (p97 / ubiquitinated BIK) | ASB11 protein expression (ASB11) | expression of ASB11 mRNA (ASB11 mRNA) | apoptosis induction (293T cells) | turnover of endogenous BIK (BIK [6]) |
| --- | --- | --- | --- | --- | --- | --- | --- | --- | --- | --- | --- | --- | --- | --- | --- | --- |
| O=S(=O)(N=Cc1c(O)ccc2ccccc12)c1cccs1 [STF-083010, N-[(2-Hydroxy-1-naphthalenyl)methylene]-2-thiophenesulfonamide] | synergized | synergistic | significant enhancement | not altered | elevated | greatly suppressed | not altered | modest reduction | increased | – | – | – | – | – | – | – |
| tunicamycin | – | – | – | – | – | – | – | – | – | increased | reduced | increased | elevated | upregulated | did not show sign of apoptosis induction | increased |
